Data: US20230165252A1, “ACTIVE COMPOUND COMBINATIONS” (Bayer Aktiengesellschaft, priority 2020, published 2023)
Where “and” joins values, the source holds several entries; their conditions need not be identical. Identical values can stand only once.

Legend:
Botrytis cinerea = assay: in vitro-Test with Botrytis cinerea (microtiter growth inhibition); assay type: cell-based
Protocol: (§1) The degree of efficacy expressed in % is denoted: 0% means an efficacy, which corresponds to that of the control, while an efficacy of 100% means that no disease is observed.
(§2) If the actual fungicidal activity exceeds the calculated value, then the activity of the combination is super-additive, i.e. a synergistic effect exists. In this case, the efficacy, which was actually observed, must be greater than the value for the expected efficacy (E), that was calculated from the abovementioned formula.
(§3) Example: In Vitro-Test with Fungal Microorganisms
(§4) Wells of 96-well microtiter plates are filled with 10 μl of a preparation of test compound or compound combination in methanol+emulsifier alkylaryl-polyglycol-ether. Thereafter, the solvent is evaporated in a hood. At the next step, 100 μl of liquid potato dextrose medium is given into each well, that has been amended with an appropriate concentration of spores or mycelium suspension of the test fungus.
(§5) With the aid of a photometer, the extinction in all wells is measured at the wavelength of 620 nm.
(§6) The microtiter plates are incubated at 20° C. and 85% relative humidity. The inhibition of growth is determined again photometrically 3-5 days after the application. Efficacy is calculated in relation to the untreated control, 0% efficacy means fungal growth as high as in untreated control while 100% efficacy means no fungal growth is measured.

Parastagonospora nodorum = assay: in vitro-Test with Parastagonospora nodorum (microtiter growth inhibition); assay type: cell-based; settings: compound alone
Protocol: as §1, §2, §3, §4, §5, §6

[1] = tested on: Ustilago segetum var. avenae; assay: in vitro-Test with Ustilago segetum var. avenae (microtiter growth inhibition); assay type: cell-based; settings: compound alone
Protocol: as §1, §2, §3, §4, §5, §6

Cercospora beticola = assay: in vitro-Test with Cercospora beticola (microtiter growth inhibition); assay type: cell-based; settings: alone
Protocol: as §1, §2, §3, §4, §5, §6

Alternaria alternate = assay: in vitro-Test with Alternaria alternate (microtiter growth inhibition); assay type: cell-based; settings: applied alone
Protocol: as §1, §2, §3, §4, §5, §6

Diaporthe citri = assay: in vitro-Test with Diaporthe citri (microtiter growth inhibition); assay type: cell-based; settings: applied alone
Protocol: as §2, §3, §4, §5, §6

[2] = Measurement of Log P values by HPLC on reversed phase columns (EEC directive 79/831 Annex V.A8), methods [a], [b], [c]; assay type: physicochemical; settings: method [a]
Protocol: Measurement of Log P values as provided herein was performed according to EEC directive 79/831 Annex V.A8 by HPLC (High Performance Liquid Chromatography) on reversed phase columns with the following methods: • ^[a]

[3] = Parastagonospora nodorum, read-out: Efficacy %
[4] = Parastagonospora nodorum, 20 ppm, read-out: Efficacy %

## Cc1ccc(C(F)(F)CNC(=O)c2c(Oc3cccc(C4CC4)c3F)nnc(Cl)c2C)c(C)c1 [(1-655)]
Botrytis cinerea; single active at 0.004 ppm
  Efficacy %: 0%
Botrytis cinerea; single active at 0.020 ppm
  Efficacy %: 0%
Botrytis cinerea; single active at 0.1 ppm
  Efficacy %: 58%
Botrytis cinerea; single active at 0.5 ppm
  Efficacy %: 100%

## Cc1ccc(C(F)(F)CNC(=O)c2c(Oc3cccc(C4CC4)c3F)nnc(Cl)c2C)c(Cl)c1 [(1-746)]
Botrytis cinerea; single active at 0.004 ppm
  Efficacy %: 0%
Botrytis cinerea; single active at 0.020 ppm
  Efficacy %: 0%
Botrytis cinerea; single active at 0.1 ppm
  Efficacy %: 38%
Botrytis cinerea; single active at 0.5 ppm
  Efficacy %: 100%

## Cc1ccc(C(F)(F)CNC(=O)c2c(Oc3cccc(C4CC4)c3F)nnc(Cl)c2C)cc1C [(1-749)]
Botrytis cinerea; single active at 0.004 ppm
  Efficacy %: 0%
Botrytis cinerea; single active at 0.020 ppm
  Efficacy %: 0%
Botrytis cinerea; single active at 0.1 ppm
  Efficacy %: 45%
Botrytis cinerea; single active at 0.5 ppm
  Efficacy %: 99%

## CCCN(CC)CC1COC2(CCC(C(C)(C)C)CC2)O1 (centres unmarked) [(1.020) spiroxamine]
Botrytis cinerea; Botrytis cinerea, single active at 20 ppm, read-out: Efficacy %
  inhibition of growth at 20 ppm: 15%
Parastagonospora nodorum; [3]
  inhibition of growth at 0.8 ppm: 6%
  inhibition of growth at 4 ppm: 0%
Parastagonospora nodorum; [4]
  inhibition of growth at 20 ppm: 0%

## CC(O)(Cn1cncn1)c1ccc(Oc2ccc(Cl)cc2)cc1C(F)(F)F (centres unmarked) [(1.055) mefentrifluconazole]
Botrytis cinerea; single active at 0.008 ppm
  Efficacy %: 0%
Botrytis cinerea; single active at 0.04 ppm
  Efficacy %: 9% and 0%
Botrytis cinerea; single active at 0.2 ppm
  Efficacy %: 60% and 96%
Botrytis cinerea; single active at 1.0 ppm
  Efficacy %: 100%
Parastagonospora nodorum; 0.008 ppm
  Efficacy %: 81%
Parastagonospora nodorum; 0.04 ppm
  Efficacy %: 98%
Parastagonospora nodorum; 0.2 ppm
  Efficacy %: 99%
[1]; 0.008 ppm
  Efficacy %: 34%
[1]; 0.04 ppm
  Efficacy %: 87%
[1]; 0.2 ppm
  Efficacy %: 98%
[1]; 1.0 ppm
  Efficacy %: 100%

## Cn1cc(C(=O)Nc2ccc(F)cc2-c2ccc(Cl)c(Cl)c2)c(C(F)F)n1 [(2.002) bixafen]
Botrytis cinerea; single active at 0.008 ppm
  Efficacy %: 9%
Botrytis cinerea; single active at 0.04 ppm
  Efficacy %: 42%
Botrytis cinerea; single active at 0.2 ppm
  Efficacy %: 55% and 67%
Botrytis cinerea; single active at 1.0 ppm
  Efficacy %: 67% and 73%
Parastagonospora nodorum; 0.04 ppm
  Efficacy %: 3%

## C[C@@H]1CC(C)(C)c2c(F)ccc(NC(=O)c3cn(C)nc3C(F)F)c21 [(2.028) inpyrfluxam]
Botrytis cinerea; single active at 0.008 ppm
  Efficacy %: 0%
Botrytis cinerea; single active at 0.04 ppm
  Efficacy %: 48% and 55%
Botrytis cinerea; single active at 0.2 ppm
  Efficacy %: 60% and 66%
Botrytis cinerea; single active at 1.0 ppm
  Efficacy %: 63% and 91%
Parastagonospora nodorum; 0.008 ppm
  Efficacy %: 0%
Parastagonospora nodorum; 0.04 ppm
  Efficacy %: 23%
Parastagonospora nodorum; 0.2 ppm
  Efficacy %: 33%
Parastagonospora nodorum; 1.0 ppm
  Efficacy %: 33%

## COc1ccnc(C(=O)N[C@H]2COC(=O)[C@H](Cc3ccccc3)[C@@H](OC(=O)C(C)C)[C@H](C)OC2=O)c1OCOC(=O)C(C)C [(3.025) fenpicoxamid]
Botrytis cinerea; single active at 0.04 ppm
  Efficacy %: 0%
Botrytis cinerea; single active at 0.2 ppm
  Efficacy %: 13%
Botrytis cinerea; single active at 1.0 ppm
  Efficacy %: 0%
Botrytis cinerea; single active at 5.0 ppm
  Efficacy %: 34%
[1]; 0.04 ppm
  Efficacy %: 3%
[1]; 0.2 ppm
  Efficacy %: 0%
[1]; 1.0 ppm
  Efficacy %: 0%
[1]; 5.0 ppm
  Efficacy %: 0%

## O=C1C2CC=CCC2C(=O)N1SC(Cl)(Cl)Cl (centres unmarked) [(5.003) captan]
Botrytis cinerea; Botrytis cinerea, single active at 4 ppm, read-out: Efficacy %
  inhibition of growth at 4 ppm: 20%
Parastagonospora nodorum; [3]
  inhibition of growth at 4 ppm: 54%
Parastagonospora nodorum; [4]
  inhibition of growth at 20 ppm: 100%

## N#Cc1sc2c(=O)c3ccccc3c(=O)c=2sc1C#N [(5.010) dithianon]
Botrytis cinerea; single active at 20 ppm
  Efficacy %: 100%
[1]; 0.8 ppm, read-out: Efficacy %
  inhibition of growth at 0.8 ppm: 11%
[1]; 20 ppm, read-out: Efficacy %
  inhibition of growth at 20 ppm: 98%

## O=C1c2ccccc2C(=O)N1SC(Cl)(Cl)Cl [(5.012) folpet]
Botrytis cinerea; Botrytis cinerea, single active at 0.08 ppm, read-out: Efficacy %
  inhibition of growth at 0.08 ppm: 0%
Botrytis cinerea; Botrytis cinerea, single active at 0.4 ppm, read-out: Efficacy %
  inhibition of growth at 0.4 ppm: 2%
Botrytis cinerea; single active at 0.4 ppm
  Efficacy %: 0%
Parastagonospora nodorum; Parastagonospora nodorum, 2 ppm, read-out: Efficacy %
  inhibition of growth at 2 ppm: 91%
Parastagonospora nodorum; Parastagonospora nodorum, 10 ppm, read-out: Efficacy %
  inhibition of growth at 10 ppm: 100%

## Cc1cc(C)nc(Nc2ccccc2)n1 [(7.005) pyrimethanil]
Botrytis cinerea; Botrytis cinerea, single active at 0.8 ppm, read-out: Efficacy %
  inhibition of growth at 0.8 ppm: 78%
Parastagonospora nodorum; [3]
  inhibition of growth at 0.8 ppm: 99%
  inhibition of growth at 4 ppm: 100%
Parastagonospora nodorum; 20 ppm
  Efficacy %: 100%

## Cc1ccc(C(F)(F)CNC(=O)c2c(Oc3cccc(C4CC4)c3F)nnc(Cl)c2C)c(C)c1 [Compound 1-655]
Cercospora beticola; 0.004 ppm
  Efficacy %: 0%
Cercospora beticola; 0.020 ppm
  Efficacy %: 0%
Cercospora beticola; 0.1 ppm
  Efficacy %: 0%
Cercospora beticola; 0.5 ppm
  Efficacy %: 7%

## CC1CC(C)(C)c2c(F)ccc(NC(=O)c3cn(C)nc3C(F)F)c21 (centres unmarked) [Compound 2.028, inpyrfluxam]
Alternaria alternate; 0.008 ppm
  Efficacy: 0%
Alternaria alternate; 0.04 ppm
  Efficacy: 57%
Alternaria alternate; 0.2 ppm
  Efficacy: 73%
Alternaria alternate; 1.0 ppm
  Efficacy: 79%
Diaporthe citri; 0.008 ppm
  Efficacy: 0% and 7%
Diaporthe citri; 0.04 ppm
  Efficacy: 23%
Diaporthe citri; 0.2 ppm
  Efficacy: 47% and 32%
Diaporthe citri; 1.0 ppm
  Efficacy: 92% and 94%

## COc1ccc(CCNC(=O)c2c(Oc3cccc(C(F)(F)F)c3)nnc(Cl)c2C)c(OC)c1 [I-500]
[2]
  LogP: 3.65^[a]

## Cc1ccc(C(F)(F)CNC(=O)c2cc(-c3cn[nH]c3)nnc2Oc2cccc(C(F)(F)F)c2)c(C)c1 [I-515]
[2]
  LogP: 3.65^[a]

## Cc1cc(C(=O)NCCc2ccc(C(F)F)cn2)c(Oc2cccc(C(F)(F)F)c2)nn1 [I-525]
[2]
  LogP: 2.57^[a];

## O=C(NCCc1ccc(-c2ccncc2)cc1)c1cc(Cl)nnc1Oc1cccc(C(F)(F)F)c1 [I-542]
[2]
  LogP: 2.13^[a]

## Cc1cc(C(=O)NCCc2cccc3oc(C)nc23)c(Oc2cccc(C(F)(F)F)c2)nn1 [I-543]
[2]
  LogP: 2.96^[a]

## O=C(NCCc1ccc2c(c1)CCO2)c1cc(Cl)nnc1Oc1cccc(C(F)(F)F)c1 [I-551]
[2]
  LogP: 3.65^[a]

## O=C(NCc1cccc2cnccc12)c1cc(Cl)nnc1Oc1cccc(C(F)(F)F)c1 [I-559]
[2]
  LogP: 2.14^[a]

## CCc1cccc(Oc2nnc(Cl)cc2C(=O)NCC(F)(F)c2ccc(C)cc2C)c1 [I-570]
[2]
  LogP: 4.68^[a]
